From ChEMBL document CHEMBL5260839 (J Med Chem, 2019)
pIC50, pKi: −log10 of the molar value. Activity calls are given as the source filed them. The calls are words filed in the database; no cut-off is given here. Peptide text beside a SMILES is read from it. * marks the point of attachment. Cbz = O=C(OCc1ccccc1)*

Tests used:
RS4-11 [1] = test: cells; details: Homo sapiens, RS4-11, 96 h
[2] = molecular target: T1, E3 ubiquitin-protein ligase Mdm2 (Homo sapiens, UniProt Q00987); test: Inhibition of MDM2 in human RS4-11 cells harbouring wildtype p53 assessed as fold change in p53 accumulation at 1 uM incubated for 4 hrs by Western blot analysis (reference value: 1); assay type: cell-based
Target sequence in this assay (Q00987 whole entry, looked up): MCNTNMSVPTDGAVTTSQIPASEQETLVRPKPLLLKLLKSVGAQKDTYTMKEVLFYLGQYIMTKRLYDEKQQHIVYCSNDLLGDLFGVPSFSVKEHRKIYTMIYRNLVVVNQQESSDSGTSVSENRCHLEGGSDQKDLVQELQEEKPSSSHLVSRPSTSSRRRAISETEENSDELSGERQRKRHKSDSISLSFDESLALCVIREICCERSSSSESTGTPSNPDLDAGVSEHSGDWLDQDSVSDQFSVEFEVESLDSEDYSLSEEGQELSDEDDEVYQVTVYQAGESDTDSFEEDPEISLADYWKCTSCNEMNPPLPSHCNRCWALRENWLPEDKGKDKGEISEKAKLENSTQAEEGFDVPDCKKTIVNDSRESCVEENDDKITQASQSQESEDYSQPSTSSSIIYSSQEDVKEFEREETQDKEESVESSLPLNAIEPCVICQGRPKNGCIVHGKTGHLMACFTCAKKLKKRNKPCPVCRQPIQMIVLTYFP

[3] = molecular target: T1, E3 ubiquitin-protein ligase Mdm2; test: Inhibition of MDM2 in human RS4-11 cells harbouring wildtype p53 assessed as fold change in MDM2 level at 1 uM incubate for 4 hrs by Western blot analysis (reference value: […]); assay type: cell-based
Target sequence in this assay (Q00987 whole entry, looked up): as above

MV4-11 = test: Inhibition of cell growth in human MV4-11 cells incubated for 4 days in the presence of lenalidomide by Lactate dehydrogenase based WST-8 assay; assay type: functional; details: time 4.0 day
RS4-11 [4] = test: Inhibition of cell growth in human RS4-11 cells incubated for 4 days in the presence of lenalidomide by Lactate dehydrogenase based WST-8 assay; assay type: functional; details: time 4.0 day
[5] = Toxicity in mouse xenografted with human RS4-11 cells assessed as signs of toxicity at 100 mg/kg, po administered once daily for 5 days; assay type: organism-based; details: in vivo, 120 h, time 5 day
KG-1 = test: cells; details: Homo sapiens, KG-1, 96 h
MONO-MAC-6 = test: cells; details: Homo sapiens, MONO-MAC-6, 96 h
RS4-11 [6] = test: Induction of apoptosis in human RS4-11 cells incubated for 24 hrs by Annexin-V/PI staining based flow cytometric analysis; assay type: functional, cell-based
[7] = Toxicity in mouse xenografted with human RS4-11 cells assessed as weight loss at 100 mg/kg, po administered once daily for 5 days; assay type: organism-based; details: in vivo, 120 h, time 5 day
RS4-11 [8] = test: Antitumor activity against human RS4-11 cells xenografted in mouse assessed as reduction in tumor growth at 100 mg/kg, po administered daily for 5 days starting from day 26; assay type: functional, organism-based; details: time 5.0 day
SIG-M5 = test: cells; details: Homo sapiens, SIG-M5, 96 h
MOLM-13 = test: cells; details: Homo sapiens, MOLM-13, 96 h
[9] = molecular target: T1, E3 ubiquitin-protein ligase Mdm2; test: Binding affinity to recombinant human MDM2 (1 to 118 residues) assessed as inhibition constant using FAM-tagged p-53 based peptide as substrate by fluorescence polarization based assay
Target sequence in this assay (Q00987 whole entry): as the sequence (Q00987 whole entry, looked up) above

RS4-11 [10] = test: Potency index, ratio of MI-1242 IC50 to test compound IC50 for inhibition of cell growth in human RS4-11 cells incubated for 4 days by lactate dehydrogenase based WST-8 assay; assay type: functional; details: time 4 day
RS4-11 [11] = test: Potency index, ratio of MI-1061 IC50 to test compound IC50 for inhibition of cell growth in human RS4-11 cells incubated for 4 days by lactate dehydrogenase based WST-8 assay; assay type: functional; details: time 4 day
[12] = molecular target: T1, E3 ubiquitin-protein ligase Mdm2; test: Inhibition of MDM2 in human RS4-11 cells harbouring wildtype p53 assessed as fold change in p53 accumulation at 10 uM incubated for 4 hrs by Western blot analysis (reference value: […]); assay type: cell-based
Target sequence in this assay (Q00987 whole entry, looked up): as above

[13] = molecular target: T1, E3 ubiquitin-protein ligase Mdm2; test: Inhibition of MDM2 in human RS4-11 cells harbouring wildtype p53 assessed as fold change in MDM2 level at 10 uM incubate for 4 hrs by Western blot analysis (reference value: […]); assay type: cell-based
Target sequence in this assay (Q00987 whole entry, looked up): as above

[14] = molecular target: T1, E3 ubiquitin-protein ligase Mdm2; test: Inhibition of MDM2 in human RS4-11 cells harbouring wildtype p53 assessed as fold change in p53 accumulation at 3 uM incubated for 4 hrs by Western blot analysis (reference value: 1); assay type: cell-based
Target sequence in this assay (Q00987 whole entry, looked up): as above

[15] = molecular target: T1, E3 ubiquitin-protein ligase Mdm2; test: Inhibition of MDM2 in human RS4-11 cells harbouring wildtype p53 assessed as fold change in MDM2 level at 3 uM incubate for 4 hrs by Western blot analysis (reference value: […]); assay type: cell-based
Target sequence in this assay (Q00987 whole entry, looked up): as above

pIC50 (RS4-11 [1]) | SMILES | further results
8.30 | O=C1CCC(N2Cc3ccc(CC#CCCCNC(=O)c4ccc(NC(=O)[C@@H]5NC6(CCCCC6)[C@@]6(C(=O)Nc7cc(Cl)ccc76)[C@H]5c5cccc(Cl)c5F)cc4)cc3C2=O)C(=O)N1 (some centres not stated) | 
7.54 | O=C1CCC(N2C(=O)c3cccc(CCCCCNC(=O)c4ccc(NC(=O)[C@@H]5NC6(CCCCC6)[C@@]6(C(=O)Nc7cc(Cl)ccc76)[C@H]5c5cccc(Cl)c5F)cc4)c3C2=O)C(=O)N1 (some centres not stated) | 
8.30 | O=C1CCC(N2Cc3cccc(NCCCCNC(=O)c4ccc(NC(=O)[C@@H]5NC6(CCCCC6)[C@@]6(C(=O)Nc7cc(Cl)ccc76)[C@H]5c5cccc(Cl)c5F)cc4)c3C2=O)C(=O)N1 (some centres not stated) | 
5.92 | CN1C(=O)CCC(N2Cc3c(C#CCCCNC(=O)c4ccc(NC(=O)[C@@H]5NC6(CCCCC6)[C@@]6(C(=O)Nc7cc(Cl)ccc76)[C@H]5c5cccc(Cl)c5F)cc4)cccc3C2=O)C1=O (some centres not stated) | 
8.30 | O=C1CCC(N2Cc3cc(CC#CCCCNC(=O)c4ccc(NC(=O)[C@@H]5NC6(CCCCC6)[C@@]6(C(=O)Nc7cc(Cl)ccc76)[C@H]5c5cccc(Cl)c5F)cc4)ccc3C2=O)C(=O)N1 (some centres not stated) | 
< 5.00 | O=C1CCC(N2Cc3c(C#CCCCNC(=O)c4ccc(NC(=O)[C@H]5NC6(CCCCC6)[C@]6(C(=O)Nc7cc(Cl)ccc76)[C@@H]5c5cccc(Cl)c5F)cc4)cccc3C2=O)C(=O)N1 (some centres not stated) | 
8.00 | O=C1CCC(N2C(=O)c3cccc(NCCCCNC(=O)c4ccc(NC(=O)[C@@H]5NC6(CCCCC6)[C@@]6(C(=O)Nc7cc(Cl)ccc76)[C@H]5c5cccc(Cl)c5F)cc4)c3C2=O)C(=O)N1 (some centres not stated) | Ratio IC50 (RS4-11 [10]): 10; Ratio IC50 (RS4-11 [11]): 10
8.41 | O=C1CCC(N2Cc3c(C#CCCNC(=O)c4ccc(NC(=O)[C@@H]5NC6(CCCCC6)[C@@]6(C(=O)Nc7cc(Cl)ccc76)[C@H]5c5cccc(Cl)c5F)cc4)cccc3C2=O)C(=O)N1 (some centres not stated) | 
8.05 | O=C1CCC(N2C(=O)c3cccc(NCCCNC(=O)c4ccc(NC(=O)[C@@H]5NC6(CCCCC6)[C@@]6(C(=O)Nc7cc(Cl)ccc76)C5c5cccc(Cl)c5F)cc4)c3C2=O)C(=O)N1 (single isomer, unassigned) | 

The next lines start with the molecule.

SMILES | pIC50 (RS4-11 [1]) | further results
O=C1CCC(N2C(=O)c3cccc(NCCOCCNC(=O)c4ccc(NC(=O)[C@@H]5NC6(CCCCC6)[C@@]6(C(=O)Nc7cc(Cl)ccc76)[C@H]5c5cccc(Cl)c5F)cc4)c3C2=O)C(=O)N1 (some centres not stated) | 8.10 | 
Cc1ncsc1-c1ccc([C@H](C)NC(=O)[C@@H]2C[C@@H](O)CN2C(=O)[C@@H](NC(=O)CCCOCCOCCOCCNC(=O)c2ccc(NC(=O)[C@@H]3NC4(CCCCC4)[C@@]4(C(=O)Nc5cc(Cl)ccc54)[C@H]3c3cccc(Cl)c3F)cc2)C(C)(C)C)cc1 | 6.47 | 
Cc1ncsc1-c1ccc([C@H](C)NC(=O)[C@@H]2C[C@@H](O)CN2C(=O)[C@@H](NC(=O)CCOCCOCCNC(=O)c2ccc(NC(=O)[C@@H]3NC4(CCCCC4)[C@@]4(C(=O)Nc5cc(Cl)ccc54)[C@H]3c3cccc(Cl)c3F)cc2)C(C)(C)C)cc1 | 6.30 | 
O=C1CCC(N2C(=O)c3cccc(NCCCCCCCNC(=O)c4ccc(NC(=O)[C@@H]5NC6(CCCCC6)[C@@]6(C(=O)Nc7cc(Cl)ccc76)[C@H]5c5cccc(Cl)c5F)cc4)c3C2=O)C(=O)N1 (some centres not stated) | 7.00 | 
O=C1CCC(N2C(=O)c3cccc(NCCNC(=O)c4ccc(NC(=O)[C@@H]5NC6(CCCCC6)[C@@]6(C(=O)Nc7cc(Cl)ccc76)[C@H]5c5cccc(Cl)c5F)cc4)c3C2=O)C(=O)N1 (some centres not stated) | 7.82 | 
CC(C)C[C@H](NC(=O)[C@H](CCc1ccccc1)NC(=O)CN1CCOCC1)C(=O)N[C@@H](Cc1ccccc1)C(=O)N[C@@H](CC(C)C)C(=O)[C@@]1(C)CO1 |  | fold change (FC) [2]: 8.5; fold change (FC) [3]: 3.6
O=C1CCC(N2C(=O)c3cccc(NCCCCCCNC(=O)c4ccc(NC(=O)[C@@H]5NC6(CCCCC6)[C@@]6(C(=O)Nc7cc(Cl)ccc76)[C@H]5c5cccc(Cl)c5F)cc4)c3C2=O)C(=O)N1 (some centres not stated) | 7.66 | 
O=C(O)c1ccc(NC(=O)[C@@H]2NC3(CCCCC3)[C@@]3(C(=O)Nc4cc(Cl)ccc43)[C@H]2c2cccc(Cl)c2F)cc1 |  | inhibition (MV4-11): Active; inhibition (RS4-11 [4]): Active; Activity [5]: Non-Toxic; pIC50 (KG-1): < 5.00; pIC50 (MONO-MAC-6): < 5.00; Activity (RS4-11 [6]): Dose-Dependent Effect; Activity [7]: Non-Toxic; Activity (RS4-11 [8]): Active; pIC50 (SIG-M5): 6.98; pIC50 (MOLM-13): 7.11
O=C1CCC(N2C(=O)c3cccc(NC(=O)c4ccc(NC(=O)[C@@H]5NC6(CCCCC6)[C@@]6(C(=O)Nc7cc(Cl)ccc76)[C@H]5c5cccc(Cl)c5F)cc4)c3C2=O)C(=O)N1 (some centres not stated) | 7.16 | 
CNC(=O)c1ccc(NC(=O)[C@@H]2NC3(CCCCC3)[C@@]3(C(=O)Nc4cc(Cl)ccc43)[C@H]2c2cccc(Cl)c2F)cc1 | 7.05 | pKi [9]: 8.57
CC(C)C[C@@H](C=O)NC(=O)[C@H](CC(C)C)NC(=O)[C@H](CC(C)C)NC(=O)OCc1ccccc1 (Cbz-Leu-Leu-Leu-aldehyde) |  | fold change (FC) [12]: 6.9; fold change (FC) [13]: 2.9
O=C1CCC(N2C(=O)c3cccc(NCCOCCOCCOCCNC(=O)c4ccc(NC(=O)[C@@H]5NC6(CCCCC6)[C@@]6(C(=O)Nc7cc(Cl)ccc76)[C@H]5c5cccc(Cl)c5F)cc4)c3C2=O)C(=O)N1 (some centres not stated) | 8.30 | 
Cc1ncsc1-c1ccc([C@H](C)NC(=O)[C@@H]2C[C@@H](O)CN2C(=O)[C@@H](NC(=O)CCCCNC(=O)c2ccc(NC(=O)[C@@H]3NC4(CCCCC4)[C@@]4(C(=O)Nc5cc(Cl)ccc54)[C@H]3c3cccc(Cl)c3F)cc2)C(C)(C)C)cc1 | 5.92 | 
NS(=O)(=O)OC[C@@H]1C[C@@H](n2ccc3c(N[C@H]4CCc5ccccc54)ncnc32)C[C@@H]1O |  | fold change (FC) [14]: 5.1; fold change (FC) [15]: 2.4
O=C1CCC(N2C(=O)c3cccc(NCCOCCOCCNC(=O)c4ccc(NC(=O)[C@@H]5NC6(CCCCC6)[C@@]6(C(=O)Nc7cc(Cl)ccc76)[C@H]5c5cccc(Cl)c5F)cc4)c3C2=O)C(=O)N1 (some centres not stated) | 8.15 | Ratio IC50 (RS4-11 [10]): 10; Ratio IC50 (RS4-11 [11]): 10
O=C1CCC(N2C(=O)c3cccc(NCCCCCNC(=O)c4ccc(NC(=O)[C@@H]5NC6(CCCCC6)[C@@]6(C(=O)Nc7cc(Cl)ccc76)[C@H]5c5cccc(Cl)c5F)cc4)c3C2=O)C(=O)N1 (some centres not stated) | 7.92 | 
